Oligonucleotides are given in HELM: sugar(base)linkage, 5' to 3'; d 2'-deoxyribose, r ribose, m 2'-O-methylribose, p phosphate. ss, as = sense and antisense strand
biological target: Mmp7 (rat); assay: reporter assay of Huesken 2005; conditions: siRNA
Note: test concentration or dose not given here.

Substance	normalised inhibition (eCFP-eYFP dual reporter) [%]
RNA1{r(C)p.r(A)p.r(C)p.r(U)p.r(C)p.r(U)p.r(A)p.r(G)p.r(G)p.r(C)p.r(C)p.r(A)p.r(U)p.r(G)p.r(C)p.r(C)p.r(U)p.r(U)p.r(U)p.d(T)p.d(T)}|RNA2{r(A)p.r(A)p.r(A)p.r(G)p.r(G)p.r(C)p.r(A)p.r(U)p.r(G)p.r(G)p.r(C)p.r(C)p.r(U)p.r(A)p.r(G)p.r(A)p.r(G)p.r(U)p.r(G)p.d(T)p.d(T)}$$$RNA1{StrandType:ss}|RNA2{StrandType:as}$	101
RNA1{r(C)p.r(A)p.r(G)p.r(A)p.r(C)p.r(A)p.r(U)p.r(C)p.r(A)p.r(U)p.r(A)p.r(A)p.r(U)p.r(U)p.r(G)p.r(G)p.r(C)p.r(U)p.r(U)p.d(T)p.d(T)}|RNA2{r(A)p.r(A)p.r(G)p.r(C)p.r(C)p.r(A)p.r(A)p.r(U)p.r(U)p.r(A)p.r(U)p.r(G)p.r(A)p.r(U)p.r(G)p.r(U)p.r(C)p.r(U)p.r(G)p.d(C)p.d(A)}$$$RNA1{StrandType:ss}|RNA2{StrandType:as}$	103
RNA1{r(C)p.r(A)p.r(G)p.r(U)p.r(G)p.r(C)p.r(A)p.r(G)p.r(U)p.r(G)p.r(G)p.r(A)p.r(C)p.r(A)p.r(A)p.r(A)p.r(C)p.r(U)p.r(G)p.d(T)p.d(T)}|RNA2{r(C)p.r(A)p.r(G)p.r(U)p.r(U)p.r(U)p.r(G)p.r(U)p.r(C)p.r(C)p.r(A)p.r(C)p.r(U)p.r(G)p.r(C)p.r(A)p.r(C)p.r(U)p.r(G)p.d(G)p.d(T)}$$$RNA1{StrandType:ss}|RNA2{StrandType:as}$	100
RNA1{r(C)p.r(A)p.r(U)p.r(A)p.r(A)p.r(U)p.r(U)p.r(G)p.r(G)p.r(C)p.r(U)p.r(U)p.r(C)p.r(G)p.r(C)p.r(A)p.r(A)p.r(G)p.r(G)p.d(T)p.d(T)}|RNA2{r(C)p.r(C)p.r(U)p.r(U)p.r(G)p.r(C)p.r(G)p.r(A)p.r(A)p.r(G)p.r(C)p.r(C)p.r(A)p.r(A)p.r(U)p.r(U)p.r(A)p.r(U)p.r(G)p.d(A)p.d(T)}$$$RNA1{StrandType:ss}|RNA2{StrandType:as}$	63.1
RNA1{r(C)p.r(A)p.r(U)p.r(G)p.r(G)p.r(A)p.r(G)p.r(A)p.r(U)p.r(A)p.r(A)p.r(U)p.r(G)p.r(C)p.r(A)p.r(G)p.r(A)p.r(A)p.r(G)p.d(T)p.d(T)}|RNA2{r(C)p.r(U)p.r(U)p.r(C)p.r(U)p.r(G)p.r(C)p.r(A)p.r(U)p.r(U)p.r(A)p.r(U)p.r(C)p.r(U)p.r(C)p.r(C)p.r(A)p.r(U)p.r(G)p.d(A)p.d(C)}$$$RNA1{StrandType:ss}|RNA2{StrandType:as}$	97.5
RNA1{r(C)p.r(C)p.r(A)p.r(G)p.r(G)p.r(A)p.r(A)p.r(A)p.r(C)p.r(A)p.r(C)p.r(U)p.r(C)p.r(U)p.r(A)p.r(G)p.r(G)p.r(C)p.r(C)p.d(T)p.d(T)}|RNA2{r(G)p.r(G)p.r(C)p.r(C)p.r(U)p.r(A)p.r(G)p.r(A)p.r(G)p.r(U)p.r(G)p.r(U)p.r(U)p.r(U)p.r(C)p.r(C)p.r(U)p.r(G)p.r(G)p.d(C)p.d(C)}$$$RNA1{StrandType:ss}|RNA2{StrandType:as}$	33.8
RNA1{r(C)p.r(C)p.r(A)p.r(G)p.r(G)p.r(A)p.r(A)p.r(G)p.r(C)p.r(C)p.r(G)p.r(G)p.r(A)p.r(G)p.r(A)p.r(A)p.r(G)p.r(U)p.r(G)p.d(T)p.d(T)}|RNA2{r(C)p.r(A)p.r(C)p.r(U)p.r(U)p.r(C)p.r(U)p.r(C)p.r(C)p.r(G)p.r(G)p.r(C)p.r(U)p.r(U)p.r(C)p.r(C)p.r(U)p.r(G)p.r(G)p.d(G)p.d(A)}$$$RNA1{StrandType:ss}|RNA2{StrandType:as}$	72.2
RNA1{r(C)p.r(C)p.r(A)p.r(G)p.r(G)p.r(U)p.r(G)p.r(U)p.r(G)p.r(G)p.r(A)p.r(G)p.r(U)p.r(G)p.r(C)p.r(C)p.r(A)p.r(G)p.r(A)p.d(T)p.d(T)}|RNA2{r(U)p.r(C)p.r(U)p.r(G)p.r(G)p.r(C)p.r(A)p.r(C)p.r(U)p.r(C)p.r(C)p.r(A)p.r(C)p.r(A)p.r(C)p.r(C)p.r(U)p.r(G)p.r(G)p.d(G)p.d(C)}$$$RNA1{StrandType:ss}|RNA2{StrandType:as}$	85.6
RNA1{r(C)p.r(C)p.r(C)p.r(A)p.r(G)p.r(G)p.r(A)p.r(A)p.r(G)p.r(C)p.r(C)p.r(G)p.r(G)p.r(A)p.r(G)p.r(A)p.r(A)p.r(G)p.r(U)p.d(T)p.d(T)}|RNA2{r(A)p.r(C)p.r(U)p.r(U)p.r(C)p.r(U)p.r(C)p.r(C)p.r(G)p.r(G)p.r(C)p.r(U)p.r(U)p.r(C)p.r(C)p.r(U)p.r(G)p.r(G)p.r(G)p.d(A)p.d(C)}$$$RNA1{StrandType:ss}|RNA2{StrandType:as}$	64.2
RNA1{r(C)p.r(C)p.r(C)p.r(A)p.r(G)p.r(G)p.r(U)p.r(G)p.r(U)p.r(G)p.r(G)p.r(A)p.r(G)p.r(U)p.r(G)p.r(C)p.r(C)p.r(A)p.r(G)p.d(T)p.d(T)}|RNA2{r(C)p.r(U)p.r(G)p.r(G)p.r(C)p.r(A)p.r(C)p.r(U)p.r(C)p.r(C)p.r(A)p.r(C)p.r(A)p.r(C)p.r(C)p.r(U)p.r(G)p.r(G)p.r(G)p.d(C)p.d(T)}$$$RNA1{StrandType:ss}|RNA2{StrandType:as}$	60.7
RNA1{r(C)p.r(C)p.r(C)p.r(U)p.r(A)p.r(C)p.r(C)p.r(U)p.r(A)p.r(U)p.r(C)p.r(A)p.r(A)p.r(G)p.r(G)p.r(A)p.r(G)p.r(A)p.r(U)p.d(T)p.d(T)}|RNA2{r(A)p.r(U)p.r(C)p.r(U)p.r(C)p.r(C)p.r(U)p.r(U)p.r(G)p.r(A)p.r(U)p.r(A)p.r(G)p.r(G)p.r(U)p.r(A)p.r(G)p.r(G)p.r(G)p.d(T)p.d(A)}$$$RNA1{StrandType:ss}|RNA2{StrandType:as}$	102
RNA1{r(C)p.r(C)p.r(G)p.r(C)p.r(A)p.r(C)p.r(U)p.r(U)p.r(C)p.r(A)p.r(G)p.r(U)p.r(G)p.r(G)p.r(G)p.r(A)p.r(A)p.r(C)p.r(A)p.d(T)p.d(T)}|RNA2{r(U)p.r(G)p.r(U)p.r(U)p.r(C)p.r(C)p.r(C)p.r(A)p.r(C)p.r(U)p.r(G)p.r(A)p.r(A)p.r(G)p.r(U)p.r(G)p.r(C)p.r(G)p.r(G)p.d(T)p.d(C)}$$$RNA1{StrandType:ss}|RNA2{StrandType:as}$	91.6
RNA1{r(C)p.r(C)p.r(G)p.r(G)p.r(A)p.r(G)p.r(A)p.r(A)p.r(G)p.r(U)p.r(G)p.r(A)p.r(C)p.r(C)p.r(G)p.r(C)p.r(A)p.r(C)p.r(U)p.d(T)p.d(T)}|RNA2{r(A)p.r(G)p.r(U)p.r(G)p.r(C)p.r(G)p.r(G)p.r(U)p.r(C)p.r(A)p.r(C)p.r(U)p.r(U)p.r(C)p.r(U)p.r(C)p.r(C)p.r(G)p.r(G)p.d(C)p.d(T)}$$$RNA1{StrandType:ss}|RNA2{StrandType:as}$	94.4
RNA1{r(C)p.r(C)p.r(U)p.r(C)p.r(G)p.r(G)p.r(C)p.r(G)p.r(G)p.r(A)p.r(G)p.r(A)p.r(U)p.r(G)p.r(C)p.r(U)p.r(C)p.r(A)p.r(C)p.d(T)p.d(T)}|RNA2{r(G)p.r(U)p.r(G)p.r(A)p.r(G)p.r(C)p.r(A)p.r(U)p.r(C)p.r(U)p.r(C)p.r(C)p.r(G)p.r(C)p.r(C)p.r(G)p.r(A)p.r(G)p.r(G)p.d(C)p.d(C)}$$$RNA1{StrandType:ss}|RNA2{StrandType:as}$	72.1
RNA1{r(C)p.r(C)p.r(U)p.r(G)p.r(C)p.r(C)p.r(A)p.r(C)p.r(U)p.r(G)p.r(U)p.r(C)p.r(C)p.r(C)p.r(A)p.r(G)p.r(G)p.r(A)p.r(A)p.d(T)p.d(T)}|RNA2{r(U)p.r(U)p.r(C)p.r(C)p.r(U)p.r(G)p.r(G)p.r(G)p.r(A)p.r(C)p.r(A)p.r(G)p.r(U)p.r(G)p.r(G)p.r(C)p.r(A)p.r(G)p.r(G)p.d(G)p.d(C)}$$$RNA1{StrandType:ss}|RNA2{StrandType:as}$	67.9
RNA1{r(C)p.r(C)p.r(U)p.r(U)p.r(C)p.r(A)p.r(C)p.r(G)p.r(A)p.r(C)p.r(U)p.r(C)p.r(U)p.r(A)p.r(A)p.r(A)p.r(A)p.r(C)p.r(A)p.d(T)p.d(T)}|RNA2{r(U)p.r(G)p.r(U)p.r(U)p.r(U)p.r(U)p.r(A)p.r(G)p.r(A)p.r(G)p.r(U)p.r(C)p.r(G)p.r(U)p.r(G)p.r(A)p.r(A)p.r(G)p.r(G)p.d(T)p.d(A)}$$$RNA1{StrandType:ss}|RNA2{StrandType:as}$	126
RNA1{r(C)p.r(G)p.r(A)p.r(C)p.r(U)p.r(C)p.r(U)p.r(A)p.r(A)p.r(A)p.r(A)p.r(C)p.r(A)p.r(A)p.r(A)p.r(G)p.r(A)p.r(A)p.r(G)p.d(T)p.d(T)}|RNA2{r(C)p.r(U)p.r(U)p.r(C)p.r(U)p.r(U)p.r(U)p.r(G)p.r(U)p.r(U)p.r(U)p.r(U)p.r(A)p.r(G)p.r(A)p.r(G)p.r(U)p.r(C)p.r(G)p.d(T)p.d(G)}$$$RNA1{StrandType:ss}|RNA2{StrandType:as}$	113
RNA1{r(C)p.r(G)p.r(C)p.r(A)p.r(A)p.r(G)p.r(G)p.r(G)p.r(G)p.r(A)p.r(G)p.r(A)p.r(U)p.r(C)p.r(A)p.r(C)p.r(G)p.r(G)p.r(A)p.d(T)p.d(T)}|RNA2{r(U)p.r(C)p.r(C)p.r(G)p.r(U)p.r(G)p.r(A)p.r(U)p.r(C)p.r(U)p.r(C)p.r(C)p.r(C)p.r(C)p.r(U)p.r(U)p.r(G)p.r(C)p.r(G)p.d(A)p.d(A)}$$$RNA1{StrandType:ss}|RNA2{StrandType:as}$	97.3
RNA1{r(C)p.r(G)p.r(C)p.r(A)p.r(C)p.r(U)p.r(U)p.r(C)p.r(A)p.r(G)p.r(U)p.r(G)p.r(G)p.r(G)p.r(A)p.r(A)p.r(C)p.r(A)p.r(G)p.d(T)p.d(T)}|RNA2{r(C)p.r(U)p.r(G)p.r(U)p.r(U)p.r(C)p.r(C)p.r(C)p.r(A)p.r(C)p.r(U)p.r(G)p.r(A)p.r(A)p.r(G)p.r(U)p.r(G)p.r(C)p.r(G)p.d(G)p.d(T)}$$$RNA1{StrandType:ss}|RNA2{StrandType:as}$	91.1
RNA1{r(C)p.r(G)p.r(G)p.r(C)p.r(G)p.r(G)p.r(A)p.r(G)p.r(A)p.r(U)p.r(G)p.r(C)p.r(U)p.r(C)p.r(A)p.r(C)p.r(U)p.r(U)p.r(U)p.d(T)p.d(T)}|RNA2{r(A)p.r(A)p.r(A)p.r(G)p.r(U)p.r(G)p.r(A)p.r(G)p.r(C)p.r(A)p.r(U)p.r(C)p.r(U)p.r(C)p.r(C)p.r(G)p.r(C)p.r(C)p.r(G)p.d(A)p.d(G)}$$$RNA1{StrandType:ss}|RNA2{StrandType:as}$	118
